“Also recorded” adds a separate entry of the source. No end group written: not given here.
Legend:
[1] = in vivo, ip
PC12 cells = test: Differentiation of cultured PC12 cells; type: cell-based; settings: 100 nM, compared to vehicle treated cells, qualitative
Method: The PC12 cells were cultured in RPMI containing 5% heat inactivated fetal bovine serum and 10% horse serum in the presence of 100 units/mL penicillin and 100 microgram/mL streptomycin. The cells were plated on poly-D-Lysine coated 6-well tissue culture plates at a density of 150,000 cells per well in 2 mL media. After 48 hours at 37° C. in 5% CO2 atmosphere, media exchange was performed and plates were dosed, using the peptide diluent (water) for the control samples. […] Cell images of each treatment group were captured and compared to the control cells to screen for differentiation and cell body volume increases. Cells having neurite-like process outgrowth were noted and photographed. The neurite-like outgrowth was deemed positive if its length was at least two times the width of the cell body.

human PAC1 receptors [2] = target: T1, human PAC1 receptors (Homo sapiens, UniProt P41586); test: FLIPR calcium flux, antagonist variable concentration mode versus 5 nM PACAP1-27, PAC1-CHO cells; type: cell-based; settings: up to 1 μM
T1 construct: host or cells: CHO (clonal line PAC1-CHO)
T1 sequence (P41586 21-468): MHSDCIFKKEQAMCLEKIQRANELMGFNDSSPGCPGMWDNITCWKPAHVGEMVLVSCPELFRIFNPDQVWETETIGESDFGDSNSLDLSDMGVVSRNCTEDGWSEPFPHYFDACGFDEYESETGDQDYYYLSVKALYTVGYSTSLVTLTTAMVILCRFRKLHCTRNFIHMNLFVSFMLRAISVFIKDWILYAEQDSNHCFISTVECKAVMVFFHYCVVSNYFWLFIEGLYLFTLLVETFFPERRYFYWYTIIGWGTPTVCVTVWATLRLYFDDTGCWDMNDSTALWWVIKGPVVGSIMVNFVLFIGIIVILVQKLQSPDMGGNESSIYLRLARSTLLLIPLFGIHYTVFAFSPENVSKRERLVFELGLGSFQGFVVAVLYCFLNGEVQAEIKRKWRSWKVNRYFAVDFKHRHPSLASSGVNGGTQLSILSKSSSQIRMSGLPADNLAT
Method: A custom DNA clone of the human PAC1 gene with 3 hemagglutinin (HA) tags inserted 3′ to the signal peptide sequence (to avoid proteolytic loss) was obtained from Genecopoeia (Rockville, Md.). The construct was electroporated into Chinese Hamster Ovary (CHO) cells, and selected for with 500 μg/mL of G418. The resulting population was screened for high expressing clones, and one such clone selected for further analysis. […] This cell line was used for all molecular pharmacology experiments. The cells were maintained in DMEM/F12 with 10% heat-inactivated FBS, 1× penicillin/streptomycin, and 500 μg/mL G418, at 37° C. and 5% CO2.
All molecular pharmacology experiments were carried out using a FLIPR Tetra from Molecular Devices (Sunnyvale, Calif.), set to image calcium flux using the manufacturer's recommended settings and protocols. […] The resulting calcium flux was recorded, and the maximum-minimum response over the entire observation time calculated and reported as the mean±SEM (4 wells per point).
For antagonist mode experiments, a concentration curve (variable concentration mode) or fixed amount (fixed concentration mode) of antagonist was added to the cells, and allowed to equilibrate for 2 minutes. […] The resulting data was analyzed using a Gaddum/Schild EC50 shift model, (Schild, 1957, Gaddum, 1957) designed to analyze competitive antagonism. […]

human PAC1 receptors [3] = target: T1, human PAC1 receptors; test: FLIPR calcium flux, antagonist fixed concentration mode (Gaddum/Schild EC50 shift), PAC1-CHO cells; type: cell-based; settings: for shift of PACAP1-27 agonist curves: fixed concentrations of antagonist up to 1 μM
Method: A custom DNA clone of the human PAC1 gene with 3 hemagglutinin (HA) tags inserted 3′ to the signal peptide sequence (to avoid proteolytic loss) was obtained from Genecopoeia (Rockville, Md.). The construct was electroporated into Chinese Hamster Ovary (CHO) cells, and selected for with 500 μg/mL of G418. The resulting population was screened for high expressing clones, and one such clone selected for further analysis. […] This cell line was used for all molecular pharmacology experiments. […] All molecular pharmacology experiments were carried out using a FLIPR Tetra from Molecular Devices (Sunnyvale, Calif.), set to image calcium flux using the manufacturer's recommended settings and protocols. The day before an experiment, the PAC1-CHO cells were split into 384 well black walled, clear bottom microplates, 10,000 cells per well. The cells were recovered overnight in growth medium (as above). The next day, the growth medium was replaced with Calcium 6 dye (Molecular Devices) using the manufacturer recommended buffer with 2.5 mM probenecid. The cells were incubated for 2 hours in the culture incubator, and removed during the last 15 minutes to allow equilibration to room temperature. Compound as indicated below was added to the cells using a 384 tip block, with real time monitoring before, during, and 15 minutes after compound addition. The resulting calcium flux was recorded, and the maximum-minimum response over the entire observation time calculated and reported as the mean±SEM (4 wells per point). For antagonist mode experiments, a concentration curve (variable concentration mode) or fixed amount (fixed concentration mode) of antagonist was added to the cells, and allowed to equilibrate for 2 minutes. […] The resulting data was analyzed using a Gaddum/Schild EC50 shift model, (Schild, 1957, Gaddum, 1957) designed to analyze competitive antagonism. […] The pharmacology values are calculated separately from each experiment, then combined and reported as the mean±SEM for the entire set of experiments.

[4] = system: PACAP receptors in human neuroblastoma NB-OK-1 cell membranes; settings: Robberecht et al. 1992; read-out: reported Ki values; cited from earlier work

Molecule	presence in mouse brain / crossing the blood brain barrier [1]	neurite-like process outgrowth / differentiation (PC12 cells)	antagonist activity at PAC1 (in words) (human PAC1 receptors [2])	Schild Slope (human PAC1 receptors [3]; fixed concentration mode)	shift of PACAP1-27 agonist curves (human PAC1 receptors [3])	Ki [4] [nM]
CC[C@H](C)[C@H](NC(=O)CNC(=O)[C@H](CC(=O)O)NC(=O)[C@H](CO)NC(=O)[C@@H](N)Cc1c[nH]cn1)C(=O)N[C@@H](Cc1ccccc1)C(=O)N[C@H](C(=O)N[C@@H](CC(=O)O)C(=O)N[C@@H](CO)C(=O)N[C@@H](Cc1ccc(O)cc1)C(=O)N[C@@H](CO)C(=O)N[C@@H](CCCNC(=N)N)C(=O)N[C@@H](Cc1ccc(O)cc1)C(=O)N[C@@H](CCCNC(=N)N)C(=O)N[C@@H](CCCCN)C(=O)N[C@@H](CCC(N)=O)C(=O)N[C@@H](CCSC)C(=O)N[C@@H](C)C(=O)N[C@H](C(=O)N[C@@H](CCCCN)C(=O)N[C@@H](CCCCN)C(=O)N[C@@H](Cc1ccc(O)cc1)C(=O)N[C@@H](CC(C)C)C(=O)N[C@@H](C)C(=O)N[C@@H](C)C(=O)N[C@H](C(=O)N[C@@H](CO[C@@H]1O[C@H](CO)[C@@H](O)[C@H](O)[C@H]1O)C(N)=O)C(C)C)C(C)C)[C@@H](C)O [PACAP1-27-S-G]	presence in mouse brain could be detected	–	–	–	–	–
CC[C@H](C)[C@H](NC(=O)CNC(=O)[C@H](CC(=O)O)NC(=O)[C@H](CO)NC(=O)[C@@H](N)Cc1c[nH]cn1)C(=O)N[C@@H](Cc1ccccc1)C(=O)N[C@H](C(=O)N[C@@H](CC(=O)O)C(=O)N[C@@H](CO)C(=O)N[C@@H](Cc1ccc(O)cc1)C(=O)N[C@@H](CO)C(=O)N[C@@H](CCCNC(=N)N)C(=O)N[C@@H](Cc1ccc(O)cc1)C(=O)N[C@@H](CCCNC(=N)N)C(=O)N[C@@H](CCCCN)C(=O)N[C@@H](CCC(N)=O)C(=O)N[C@@H](CCSC)C(=O)N[C@@H](C)C(=O)N[C@H](C(=O)N[C@@H](CCCCN)C(=O)N[C@@H](CCCCN)C(=O)N[C@@H](Cc1ccc(O)cc1)C(=O)N[C@@H](CC(C)C)C(=O)N[C@@H](C)C(=O)N[C@@H](C)C(=O)N[C@H](C(=O)N[C@@H](CC(C)C)C(N)=O)C(C)C)C(C)C)[C@@H](C)O [PACAP1-27]	–	induced neurite outgrowth	–	–	–	–
CSCC[C@H](NC(=O)[C@H](CCC(N)=O)NC(=O)[C@H](CCCCN)NC(=O)[C@H](CCCNC(=N)N)NC(=O)[C@H](Cc1ccc(O)cc1)NC(=O)[C@H](CCCNC(=N)N)NC(=O)[C@H](CO)NC(=O)[C@H](Cc1ccc(O)cc1)NC(=O)[C@H](CO)NC(=O)[C@H](CC(=O)O)NC(=O)[C@@H](NC(=O)[C@@H](N)Cc1ccccc1)[C@@H](C)O)C(=O)N[C@@H](C)C(=O)N[C@H](C(=O)N[C@@H](CCCCN)C(=O)N[C@@H](CCCCN)C(=O)N[C@@H](Cc1ccc(O)cc1)C(=O)N[C@@H](CC(C)C)C(=O)N[C@@H](C)C(=O)N[C@@H](C)C(=O)N[C@H](C(=O)N[C@@H](CC(C)C)C(=O)NCC(=O)N[C@@H](CCCCN)C(=O)N[C@@H](CCCNC(=N)N)C(=O)N[C@@H](Cc1ccc(O)cc1)C(=O)N[C@@H](CCCCN)C(=O)N[C@@H](CCC(N)=O)C(=O)N[C@@H](CCCNC(=N)N)C(=O)N[C@H](C(=O)N[C@@H](CCCCN)C(=O)N[C@@H](CC(N)=O)C(=O)N[C@@H](CCCCN)C(N)=O)C(C)C)C(C)C)C(C)C [PACAP6-38]	–	–	very weak antagonist activity; also recorded: shows antagonism, but it is low potency	2.0±0.1	induced a shift only at 1 μM; also recorded: shifts the curve only at the highest concentration (1 μM)	1.5
FTDSY10SRYRKQMAVK20KYLAAVL (FTDSYSRYRKQMAVKKYLAAVL-NH2; ends and bridges not checked) [PACAP6-27]	–	–	no antagonist activity and none	–	caused no shift in the agonist curves; also recorded: no detectable shifts in the agonist curves	60
